We go through 44 substances from patent publication US10159726B2, “Peptides, combination of peptides and scaffolds for use in immunotherapeutic treatment of various cancers” (Immatics Biotechnologies GmbH, priority 2015, dated 2018).

This test has as its system HLA-A*24. Description: MHC binding assay, UV-ligand exchange with beta2m ELISA, HLA-A*24. Details: species or system human. To be noted: binding to HLA-A*24, UV-ligand exchange, β2m ELISA. The text has this:
Candidate peptides for T cell based therapies according to the present invention were further tested for their MHC binding capacity (affinity). The individual peptide-MHC complexes were produced by UV-ligand exchange, where a UV-sensitive peptide is cleaved upon UV-irradiation, and exchanged with the peptide of interest as analyzed. Only peptide candidates that can effectively bind and stabilize the peptide-receptive MHC molecules prevent dissociation of the MHC complexes. To determine the yield of the exchange reaction, an ELISA was performed based on the detection of the light chain (β2m) of stabilized MHC complexes. The assay was performed as generally described in Rodenko et al. (Rodenko et al., 2006).
96 well MAXISorp plates (NUNC) were coated over night with 2 ug/ml streptavidin in PBS at room temperature, washed 4× and blocked for 1 h at 37° C. in 2% BSA containing blocking buffer. […] Peptide-MHC monomers of the UV-exchange reaction were diluted 100 fold in blocking buffer. Samples were incubated for 1 h at 37° C., washed four times, incubated with 2 ug/ml HRP conjugated anti-β2m for 1 h at 37° C., washed again and detected with TMB solution that is stopped with […]. Absorption was measured at 450 nm. Candidate peptides that show a high exchange yield (preferably higher than 50%, most preferred higher than 75%) are generally preferred for a generation and production of antibodies or fragments thereof, and/or T cell receptors or fragments thereof, as they show sufficient avidity to the MHC molecules and prevent dissociation of the MHC complexes.
Background: In an ELISA, binding on a coated surface is turned into a signal by an enzyme label.
With “297 (TYIDTRTVF; listed as Homo sapiens) [compound 297]”, the “Peptide exchange (MHC class I binding score, peptide exchange yield)” value (shortened to “Peptide exchange”) was “++++ (>=75% = ++++)”.

As to “170 (QYPFHVPLL; listed as Homo sapiens) [compound 170]”, the “Peptide exchange” value is “++++ (>=75% = ++++)”. With “208 (TYLEKIDGF; listed as Homo sapiens) [compound 208]”, the “Peptide exchange” value was “++++ (>=75% = ++++)”. Turning to “293 (VYPHFSTTNLI; listed as Homo sapiens) [compound 293]”, the “Peptide exchange” value is “++++ (>=75% = ++++)”. For “290 (KYGDFKLLEF; listed as Homo sapiens) [compound 290]” the value was “++++ (>=75% = ++++)”; for “264 (LYTETRLQF; listed as Homo sapiens) [compound 264]”, “++++ (>=75% = ++++)”. For “301 (KFDDVTMLF; listed as Homo sapiens) [compound 301]” the value was “++++ (>=75% = ++++)”; for “129 (KYIDYLMTW; listed as Homo sapiens) [compound 129]”, “++++ (>=75% = ++++)”. Then “120 (GYIEHFSLW; listed as Homo sapiens) [compound 120]”, with “++++ (>=75% = ++++)”.

For “272 (RYVFPLPYL; listed as Homo sapiens) [compound 272]”, the “Peptide exchange” value is on record as “++++ (>=75% = ++++)”. Then “184 (IYSVGAFENF; listed as Homo sapiens) [compound 184]”, with “++++ (>=75% = ++++)”; and “185 (QYLVHVNDL; listed as Homo sapiens) [compound 185]”, with “++++ (>=75% = ++++)”. For “140 (RYLINSYDF; listed as Homo sapiens) [compound 140]” the value was “++++ (>=75% = ++++)”; for “289 (FFHEGQYVF; listed as Homo sapiens) [compound 289]”, “++++ (>=75% = ++++)”.

As for “221 (KYIGNLDLL; listed as Homo sapiens) [compound 221]”, the “Peptide exchange” value was “++++ (>=75% = ++++)”. As for “305 (NYENKQYLF; listed as Homo sapiens) [compound 305]”, the “Peptide exchange” value is recorded as “++++ (>=75% = ++++)”. On to “231 (AFADVSVKF; listed as Homo sapiens) [compound 231]”, for which the “Peptide exchange” value is recorded as “++++ (>=75% = ++++)”. Then “274 (KQLDIANYELF; listed as Homo sapiens) [compound 274]”, with “++++ (>=75% = ++++)”; and “276 (QYLDVLHAL; listed as Homo sapiens) [compound 276]”, with “++++ (>=75% = ++++)”; and “135 (VYEAMVPLF; listed as Homo sapiens) [compound 135]”, with “++++ (>=75% = ++++)”. For “116 (AYVIAVHLF; listed as Homo sapiens) [compound 116]” the value was “++++ (>=75% = ++++)”. As to “286 (SYGTILSHI; listed as Homo sapiens) [compound 286]”, the “Peptide exchange” value is “++++ (>=75% = ++++)”. For “210 (IYAGVGEFSF; listed as Homo sapiens) [compound 210]” the value was “++++ (>=75% = ++++)”. For “311 (EYLQNLNHI; listed as Homo sapiens) [compound 311]” the value was “++++ (>=75% = ++++)”; for “319 (KYSDVKNLI; listed as Homo sapiens) [compound 319]”, “++++ (>=75% = ++++)”. For “153 (VYVPFGGKSMITF; listed as Homo sapiens) [compound 153]” the value was “++++ (>=75% = ++++)”. For the substance “261 (GYIKLINFI; listed as Homo sapiens) [compound 261]”, the “Peptide exchange” value was “++++ (>=75% = ++++)”. Then “97 (TYTFLKETF; listed as Homo sapiens) [compound 97]”, with “++++ (>=75% = ++++)”; and “149 (SYGTVSQI; listed as Homo sapiens) [compound 149]”, with “++++ (>=75% = ++++)”. Then “275 (KYGTLDVTF; listed as Homo sapiens) [compound 275]”, with “++++ (>=75% = ++++)”; and “296 (SYQVIFQHF; listed as Homo sapiens) [compound 296]”, with “++++ (>=75% = ++++)”; and “124 (TYKDYVDLF; listed as Homo sapiens) [compound 124]”, with “+ (<20% = +)”. As to “262 (VYSSQFETI; listed as Homo sapiens) [compound 262]”, the “Peptide exchange” value is recorded as “++++ (>=75% = ++++)”.

Take “249 (RYHPTTCTI; listed as Homo sapiens) [compound 249]”: the “Peptide exchange” value was “++++ (>=75% = ++++)”. As for “209 (AFIETPIPLF; listed as Homo sapiens) [compound 209]”, the “Peptide exchange” value is on record as “++++ (>=75% = ++++)”. Regarding “206 (NYLDVATFL; listed as Homo sapiens) [compound 206]”, the “Peptide exchange” value is recorded as “++++ (>=75% = ++++)”.

With “173 (QYLEKYYNL; listed as Homo sapiens) [compound 173]”, the “Peptide exchange” value is reported as “++++ (>=75% = ++++)”. For “114 (QYLDGTWSL; listed as Homo sapiens) [compound 114]” the value was “++++ (>=75% = ++++)”; for “223 (TFITQSPLL; listed as Homo sapiens) [compound 223]”, “++++ (>=75% = ++++)”; for “292 (FYPQIINTF; listed as Homo sapiens) [compound 292]”, “++++ (>=75% = ++++)”. Then “109 (LFITGGQFF; listed as Homo sapiens) [compound 109]”, with “++++ (>=75% = ++++)”. Then “265 (SYLNEAFSF; listed as Homo sapiens) [compound 265]”, with “++++ (>=75% = ++++)”; and “99 (QYILAVPVL; listed as Homo sapiens) [compound 99]”, with “++++ (>=75% = ++++)”; and “197 (IFTDIFHYL; listed as Homo sapiens) [compound 197]”, with “++++ (>=75% = ++++)”.
